The text below walks through data of PubChem BioAssay AID1996.

Values after ≈ are worked out from the molar mass of the structure shown. A value given as a limit tells only on which side of the number the result lay.

For this series the following is noted: buffer; pH 7.4; 200.0 µM.
`CCCS(=O)(=O)Nc1ccc(-c2cn3c(n2)SCC3)cc1` came in with a kinetic solubility of 44.5 µg/mL (≈ 138 µM).
Under `CN(C)/C=C(\c1cnc(Cl)s1)S(=O)(=O)c1ccccc1` stands 43.8 µg/mL (≈ 133 µM); under `Cc1ccc(C(=O)OCC(=O)NCc2ccc3c(c2)OCO3)o1`, > 47.6 µg/mL.
The result for `C/C(=C\c1cccc(Cl)c1Cl)C(=O)c1c(C)cc(C)[nH]c1=O` reads 3.5 µg/mL (≈ 10.4 µM).
The result for `Cc1ccc(N2C(=O)CC(C)CC2=O)cc1` reads > 32.6 µg/mL.
Compound `CNS(=O)(=O)c1cccc(C(=O)OCC(=O)N2CCCC2)c1` came in with a solubility (kinetic) of 45.2 µg/mL (≈ 138 µM).
Under `COc1cccc(CNC(=S)Nc2cccc(Cl)c2C)c1` stands 29.9 µg/mL (≈ 93.2 µM).
Under `CCOC(=O)Cn1nc(C)n(-c2c(C)cccc2C)c1=O` stands > 43.4 µg/mL.
The result for `CCOC(=O)c1cnc2cc(F)c(F)cc2c1N1CCN(C)CC1` reads 30.7 µg/mL (≈ 91.5 µM); that for `Cc1cccc(C(=O)NCC(c2ccco2)N2CCc3ccccc32)c1` (stereo not drawn), 8.2 µg/mL (≈ 23.7 µM); that for `COc1ccccc1OCCCOc1cccc(/C=C2\SC(=O)NC2=O)c1`, < 0.8 µg/mL.
Turning to `Cc1oc(-c2cccs2)nc1CN1CCC(C(=O)N2CCCC2)CC1`, the solubility (kinetic) was > 53.9 µg/mL.
The result for `Cc1cccc(-c2noc(-c3ccccc3C(=O)NCc3ccco3)n2)c1` reads 8.9 µg/mL (≈ 24.8 µM); that for `Nc1nc2c(Cl)ccc(Cl)c2s1`, 3.2 µg/mL (≈ 14.6 µM); that for `COc1ccc(OCC(=O)Nc2ccc3oc(=O)ccc3c2)cc1`, 3.3 µg/mL (≈ 10.1 µM).
The result for `NS(=O)(=O)c1ccc(N=Cc2c(O)c3ccccc3oc2=O)cc1` reads 19.9 µg/mL (≈ 57.8 µM); that for `Cc1ccc(N2C(=O)N(C(C)C)C(C)(C)CC2(C)O)cc1` (stereo not drawn), > 43.6 µg/mL; that for `CC1CC(C)CN(CCOc2cccc3ccccc23)C1` (stereo not drawn), 34.1 µg/mL (≈ 120 µM).
Take `O=Cc1cn(-c2ccccc2)nc1-c1ccncc1`: the kinetic solubility was > 37.4 µg/mL.
The result for `NS(=O)(=O)c1ccc(NC(=O)Nc2cccc3ccccc23)cc1` reads 2.1 µg/mL (≈ 6.15 µM).
The result for `c1ccc2nc3c(nc2c1)OCC1CCCCN31` (stereo not drawn) reads 23.5 µg/mL (≈ 97.4 µM).
As for `c1ccc(CNCCc2c[nH]c3ccccc23)cc1`, the kinetic solubility came to 37.2 µg/mL (≈ 149 µM).
Under `Cc1ccc(N2C(=O)SC(Cc3ccccc3)C2=O)cc1` (stereo not drawn) stands 0.8 µg/mL (≈ 2.69 µM); under `COc1cc(N)c(Cl)cc1C(=O)OCC(=O)NCC1CCCCC1`, 4.8 µg/mL (≈ 13.5 µM).
Under `COc1ccc(CCNC(=O)c2cc3ccccc3oc2=O)cc1` stands < 0.7 µg/mL; under `Cc1cccc(N(Cc2ccccc2)C(=O)c2ccccc2F)c1`, 11.5 µg/mL (≈ 36 µM).
Under `O=C(NCCc1cccc(Cl)c1)c1cc2ccccc2oc1=O` stands < 0.7 µg/mL.
In the case of `CCOc1ccc(-n2ccc(=O)c(C(=O)O)n2)cc1`, the solubility (kinetic) was > 39 µg/mL.
Under `CC(C)c1ccc(/C=C/c2[nH]c(=O)[nH]c(=O)c2[N+](=O)[O-])cc1` stands 19.3 µg/mL (≈ 64.1 µM).
The result for `O=C(COC(=O)Cc1ccc(F)cc1)NC1CCCCC1` reads > 44 µg/mL; that for `Cc1nn(C)c(Oc2ccccc2)c1CCNC(=O)CCl`, > 46.2 µg/mL; that for `Cc1cccc(NC(=O)CCS(=O)(=O)c2ccc(Cl)cc2)c1`, 5.5 µg/mL (≈ 16.3 µM).
The result for `CCOc1ccc(NC(=O)C(C)Sc2nccn2C)cc1` (stereo not drawn) reads > 45.8 µg/mL.
For the compound `COCCCNc1nc2nonc2nc1N(C)CC1CCCN1C` (stereo not drawn), the solubility (kinetic) stood at 43.5 µg/mL (≈ 130 µM).
The result for `Cc1ccc(S(=O)(=O)NCc2ccncc2)c(C)c1C` reads 34.7 µg/mL (≈ 119 µM); that for `Cc1cc(C)n(CC(=O)NCc2ccccc2)c(=O)c1C#N`, 43.5 µg/mL (≈ 147 µM).
The result for `CCOc1ccc(C(=O)Nc2cccc3cccnc23)cc1` reads 0.7 µg/mL (≈ 2.39 µM); that for `CC1(C)C(=O)Nc2ccccc2N1C(=O)COC(=O)c1cc(Cl)cc(Cl)c1`, 2.8 µg/mL (≈ 6.88 µM).
The result for `CS(=O)(=O)N(CC(=O)Nc1c(F)cccc1F)Cc1ccccc1` reads > 53.2 µg/mL; that for `CN(C)/C=C/C(=O)c1cccc(Oc2ncccn2)c1`, > 40.4 µg/mL.
As for `CCc1ccc(CCC(=O)Nc2ccc(C(=O)O)cc2)o1`, the kinetic solubility is > 43.1 µg/mL.
The result for `CC(C)Sc1cc(Cl)nc(NC(=O)Nc2ccccc2)n1` reads 0.4 µg/mL (≈ 1.24 µM); that for `CCC(C)c1ccc(NC(=O)N2CCOCC2)cc1` (stereo not drawn), 37.4 µg/mL (≈ 143 µM); that for `Cc1cnc(NC(=O)c2ccc(Cl)nc2)s1`, 6.6 µg/mL (≈ 26 µM).
`Cc1ccccc1C(=O)OCC(=O)Nc1cccc(S(=O)(=O)NC2=NCCC2)c1`: the kinetic solubility was > 62.3 µg/mL.
The result for `C=Cn1ccnc1CC(O)c1ccc(OC)cc1` (stereo not drawn) reads 33.9 µg/mL (≈ 139 µM); that for `Cc1ccc2cc(COC(=O)c3cccc([N+](=O)[O-])c3)c(=O)[nH]c2c1`, 2.7 µg/mL (≈ 7.98 µM).
Under `Nc1ccccc1C(=O)NC1CCCCNC1=O` (stereo not drawn) stands > 37.1 µg/mL; under `O=S(=O)(NCCc1cccs1)c1ccc(Br)cc1`, 36.3 µg/mL (≈ 105 µM); under `Cc1ccc(C(=O)NCC(=O)OC(C)C(=O)Nc2ccccc2[N+](=O)[O-])s1` (stereo not drawn), > 58.7 µg/mL.
For the compound `Cc1ccc(C(=O)NCC(=O)NCc2ccccc2F)s1`, the kinetic solubility is > 46 µg/mL.
The result for `O=C(Cc1ccc(Cl)cc1)OCC(=O)N1CCCCCC1` reads > 46.5 µg/mL.
The result for `CCCCn1c(N)c(N(CC)C(=O)COc2ccc(C#N)cc2)c(=O)[nH]c1=O` reads 15.6 µg/mL (≈ 40.5 µM); that for `Cc1cc(C)cc(NC(=O)C2CCCN(c3ncccn3)C2)c1` (stereo not drawn), 0.5 µg/mL (≈ 1.61 µM).
The result for `CCCCCCc1ccc(OC(=O)c2ccncc2)cc1` reads 0.7 µg/mL (≈ 2.47 µM); that for `CCC(C)NC(=O)CN1C(=O)NC2(CCOc3ccccc32)C1=O` (stereo not drawn), > 49.7 µg/mL.
On to `O=C(CNC(=O)N1CC(=O)Nc2ccccc21)Nc1ccccc1`, for which the solubility (kinetic) is > 48.7 µg/mL.
The result for `Cc1cc(C(=O)COC(=O)C23CC4CC(CC(O)(C4)C2)C3)c(C)n1C` reads > 51.8 µg/mL.
Take `COc1ccccc1CC(=O)NC(=O)c1ccccc1O`: the solubility (kinetic) worked out at 41.5 µg/mL (≈ 145 µM).
Under `CSc1ncccc1C(=O)Nc1ncc(C)s1` stands 5.7 µg/mL (≈ 21.5 µM); under `O=C(NCC(=O)N1CCCC1)c1ccc(Br)cc1`, > 46.7 µg/mL; under `CCN(CC(=O)Nc1cc(Cl)cc(Cl)c1)CC(=O)NC1CCS(=O)(=O)C1` (stereo not drawn), 52.3 µg/mL (≈ 124 µM).
The result for `Cc1ccc(-c2csc(NC(=O)CN3C(=O)CCC3=O)n2)cc1` reads 0.5 µg/mL (≈ 1.52 µM); that for `O=C(/C=C/c1ccc(S(=O)(=O)N2CCOCC2)cc1)Nc1cc(F)ccc1F`, 5.5 µg/mL (≈ 13.5 µM).
On to `CCNC(=O)COC(=O)CCNC(=O)c1ccc(Cl)cc1`, for which the kinetic solubility was > 46.9 µg/mL.
Under `O=C(O)C1CCC1C(=O)Nc1nc(-c2ccc(Cl)s2)cs1` (stereo not drawn) stands > 51.4 µg/mL; under `Cc1cccc(CN2CCN(C(=S)Nc3ccccc3)CC2)c1`, > 48.8 µg/mL.
Under `O=C(COC(=O)c1ccc(Cl)nc1)NCCc1ccc(F)cc1` stands > 50.5 µg/mL; under `O=C(O)CCN1C(=O)c2ccc(Oc3ccc([N+](=O)[O-])cc3)cc2C1=O`, 52.9 µg/mL (≈ 148 µM).
The result for `CCOc1cnc(C(=O)NNC(=O)c2ccccc2Br)o1` reads > 53.1 µg/mL; that for `Cc1cccc(C(=O)NCC(=O)N2CCOCC2)c1`, > 39.3 µg/mL.
`Fc1ccc(Nc2nc3ccccc3s2)cc1`: the kinetic solubility turned out to be 0.4 µg/mL (≈ 1.64 µM).
Under `O=C(Cc1c(F)cccc1Cl)Nc1nccs1` stands 30 µg/mL (≈ 111 µM).
Under `c1ccc(-c2cc3ccccc3[nH]2)cc1` stands 0.7 µg/mL (≈ 3.62 µM); under `CC(C)[C@H](NC(=O)c1ccc(C(C)(C)C)cc1)C(=O)N1CCN(Cc2ccc3c(c2)OCO3)CC1`, 7.9 µg/mL (≈ 16.5 µM); under `O=C(NC(=S)Nc1ccccc1Br)C1CC1`, 41.7 µg/mL (≈ 139 µM).
Consider `Cl.Oc1ccccc1CNCC12CC3CC(CC(C3)C1)C2`, for which the kinetic solubility was > 46.2 µg/mL.
In the case of `CCOc1ccc(S(=O)(=O)NC(Cc2cnc[nH]2)C(=O)O)cc1` (stereo not drawn), the kinetic solubility was 25.8 µg/mL (≈ 76 µM).
The result for `CC(C)(C)c1csc(NC(=O)C2=COCCO2)n1` reads 40.2 µg/mL (≈ 150 µM).
The result for `CCOc1cc(N2CCOCC2)c(OCC)cc1NC(=O)c1ccc(OC)c(S(=O)(=O)N2CCOCC2)c1` reads 45.2 µg/mL (≈ 82.2 µM).
Under `CC(C)c1ccc([N+](=O)[O-])cc1S(=O)(=O)N1CCN(C)CC1` stands > 49.1 µg/mL.
Consider `O=C(NC(=S)Nc1ccc(CN2CCOCC2)cc1)c1cccc(F)c1`, for which the solubility (kinetic) was 27 µg/mL (≈ 72.3 µM).
Under `CCOn1c(=O)c(-c2cc(OC)ccc2OC)[n+]([O-])c2ccccc21` stands > 51.4 µg/mL.
The result for `O=C(Nc1ncc([N+](=O)[O-])s1)C1COc2ccccc2O1` (stereo not drawn) reads > 46.1 µg/mL; that for `Cc1occc1C(=O)Nc1ccc([N+](=O)[O-])cc1Br`, 1.7 µg/mL (≈ 5.23 µM).
Under `Nc1ncnc2c1ncn2[C@@H]1O[C@H](CO)[C@@H](O)[C@H]1O` stands > 40.1 µg/mL; under `Cc1cccc(NCc2ccc(N(C)C)cc2)n1`, 27.8 µg/mL (≈ 115 µM); under `O=C(NC1CCS(=O)(=O)C1)c1cccnc1` (stereo not drawn), 26.1 µg/mL (≈ 109 µM).
The compound `CCOC(=O)C1CCN(Cc2cc(Cl)c3ccccc3c2O)CC1` yielded a kinetic solubility of 6.2 µg/mL (≈ 17.8 µM).
Under `COc1ccc2c(c1)c(C(=O)CN1CCCCC1)c(C)n2C` stands 44.3 µg/mL (≈ 147 µM); under `COc1ccc(-n2ccc(=O)c(C(=O)O)n2)c(OC)c1`, > 41.4 µg/mL.
Under `CC(=O)Nc1ccccc1OCc1cnc(Cl)s1` stands > 42.4 µg/mL.
The result for `Cc1onc(-c2ccccc2)c1C(=O)NN1CCOCC1` reads > 43.1 µg/mL; that for `O=C(Nc1ccc2ncccc2c1)c1ccccc1Br`, 3.3 µg/mL (≈ 10.1 µM); that for `O=C(NC(c1ccccc1)c1ccccn1)c1cccc([N+](=O)[O-])c1` (stereo not drawn), 38.3 µg/mL (≈ 115 µM).
With `S=C(NC1CCCCC1)N1CCN(c2ncccn2)CC1`, the kinetic solubility was determined as 9.6 µg/mL (≈ 31.4 µM).
The result for `Cc1ccc([N+](=O)[O-])c(OCC(O)CNC(C)(C)C)c1.Cl` (stereo not drawn) reads > 47.8 µg/mL; that for `c1csc(-c2cn3ccc4ccccc4c3n2)c1`, 10.7 µg/mL (≈ 42.7 µM); that for `O=C(CSc1ncccn1)NCc1ccc2c(c1)OCO2`, > 45.5 µg/mL.
The result for `O=C(/C=C/c1cccs1)NC1CCCC1` reads > 33.2 µg/mL.
The result for `Cc1cccc(OCC(=O)NCCNC(=O)c2ccncc2)c1` reads 42.3 µg/mL (≈ 135 µM); that for `CCc1ccc(S(=O)(=O)NCC(O)COc2ccc(OC)cc2)cc1` (stereo not drawn), 51.9 µg/mL (≈ 142 µM).
`O=C(NCC1CCCO1)c1cccnc1NCc1ccc(F)cc1` (stereo not drawn): the solubility (kinetic) was > 49.4 µg/mL.
